According to patent US9492470B2, “Use of HMGA-targeted phosphorothioate DNA aptamers to suppress carcinogenic activity and increase sensitivity to chemotherapy agents in human cancer cells” (MIAMI UNIVERSITY, priority 2012, dated 2016):
Where two headings read alike, the source gives them in different places. In the oligonucleotide strings, read from the 5' end, every base follows the letter of its sugar. An asterisk marks phosphorothioate; unmarked linkages are phosphodiester. Other units and linkages are bracketed, terminal groups are in braces. A string of capitals states the bases alone. d = 2'-deoxy (DNA)

Legend:
[1] = system: Miapaca-2 cells; assay: Cell viability (crystal violet) after sDNA transfection, Miapaca-2; assay type: cell-based, Human; conditions: for cells dead compared to UT: versus untransfected (UT) cells
Description: The absorbance was measured at 570 nm in quadruplicate. All data from control cells were combined and averaged.

[2] = system: Miapaca-2 cells; assay: Cell growth with gemcitabine treatment after sDNA transfection, Miapaca-2; assay type: cell-based, Human; conditions: for IC50: Homo sapiens, MIA PaCa-2, 96 h
[3] = system: Miapaca-2 cells; assay: as above; assay type: cell-based, Human; conditions: 96 hours; for Fold change in numbers of viable cells normalized relative to TC: Miapaca-2, 0.1 ug sDNA
Description: (§1) Cells were fixed after 96 hours and numbers of viable cells counted by measuring the absorbance at 570 nm.
(§2) Cells were transfected with 0.1 μg of TC-sDNA, Mix-sDNA, CG-sDNA, and AT-sDNA.

[4] = system: AsPC-1 cells; assay: Cell growth with gemcitabine treatment after sDNA transfection, AsPC-1; assay type: cell-based, Human; conditions: for Fold change in numbers of viable cells normalized relative to TC: AsPC-1, 0.1 ug sDNA
Description: as §1, §2

[5] = system: AsPC-1 cells; conditions: for cells dead compared to UT: versus untransfected (UT) cells
Description: AsPC-1 cells were grown in Roswell Park Memorial Institute medium supplemented with 10% FBS, and 1% penicillin-streptomycin.
Transfections using sDNA at concentrations of 0.1 and 0.25 μg per well were conducted with 5×10^4 and 1×10^5 Miapaca-2 and AsPC-1 cells, respectively, in 24-well plates and all data were collected in quadruplicate. Miapaca-2 and AsPC-1 cells were transfected with sDNA using Lipofectamine 2000 (Invitrogen,™ Life Technologies Corporation, Carlsbad, Calif.) according to the manufacturer's protocol.
Briefly, AsPC-1 cells grown in 10% FBS containing RPIM medium were trypsinized using a trypsin-EDTA solution commercially available from the Sigma-Aldrich, and used to seed fresh media in a 24-well plate with 10^5 cells per well.
After 48 hours, the cells were transfected with the selected sDNA using Lipofectamine 2000 (Invitrogen,™ Life Technologies Corporation, Carlsbad, Calif.) according to the manufacturer's protocol. […] The cells were then fixed with 4% paraformaldehyde in PBS for 20 minutes and stained in 0.1% crystal violet stain (Sigma-Aldrich) for 30 minutes. The cells were washed under running tap water, air dried, and extracted with 0.2% Triton™ X-100 for 30 minutes. […] The absorbance of the Triton X-100 was measured at 570 nm using a HTS microplate reader. All results were analyzed for statistical significance using a student's unpaired t-test.

[6] = system: HMGA1 expression levels in AsPC-1 cells; assay: Western blot of HMGA1 expression levels in AsPC-1 nuclear extracts; assay type: cell-based, Human; conditions: AsPC-1, 100 nM gemcitabine, 48 hours
Description: Cytoplasmic and nuclear protein extracts were prepared from pancreatic cancer cells using NE-PER extraction kit (Thermo Scientific, Rockford, Ill.). Protein concentrations were determined using a bicinchoninic acid assay with bovine serum albumin as a standard. Nuclear proteins that contained 25 or 15 μg total protein were separated by SDS-PAGE with a 4%-20% Criterion gradient gel (Bio-Rad Laboratories, Inc., Hercules, Calif.). The proteins were transferred to immuno-blot PVDF membrane (0.2 μm) (Bio-Rad Laboratories, Inc., Hercules, Calif.) and blocked in 5% dry milk in PBS supplemented with 0.2% Tween 20 (PBST). The PVDF membranes were then probed with 1:1000 dilution of rabbit anti-HMGA1 antibody (Santa Cruz Biotechnology Inc, Santa Cruz, Calif.) and 1:100 dilution of rabbit anti-HMGA2 antibody (Abcam plc, Cambridge, Mass.), in 3% BSA in PBST at 4° C. overnight. After three washes with PBST, the membrane was blotted with secondary antibody, ant-rabbit IgG-HRP (cell signaling) 1:5000 dilution in 1% dry milk in PBST at room temperature for 1 hour. An enhanced chemiluminescence detection (ECL, GE Healthcare Life Sciences, Piscataway, N.J.) system was used to detect target proteins. To ensure equal loading of the proteins between groups, membranes were re-probed with anti-TATA binding protein antibody (Abcam plc, Cambridge, Mass.). […] The control was nuclear extract from untreated cells. Triplicates of each sample were run on the gel and analyzed with the Alpha Imager. The relative HMGA1 densities were obtained by dividing HMGA 1 density by TBP density. […] TATA binding protein (TBP) was used as a loading control. […] HMGA1 expression levels were examined after transfection with CG-sDNA or AT-sDNA to determine if the transfection procedure affected HMGA1 expression levels. The AT-sDNA used for transfection contained an 18 adenine/thymine stretch enabling HMGA1 to bind the DNA with all three AT-hooks. As a negative control, a non-HMGA1-targeted sDNA containing an equal length of DNA but with no AT-stretches, i.e. CG-sDNA, was used. […]

[7] = system: AsPC-1 cells; assay: Cell growth with gemcitabine treatment after sDNA transfection, AsPC-1; assay type: cell-based, Human; conditions: for Fold change in numbers of viable cells, TC cells with gemcitabine: AsPC-1, TC (no sDNA), 96 hours
[8] = Miapaca-2, 0.1 μg sDNA, 96 h after transfection
[9] = AsPC-1, 0.1 μg sDNA, 96 h after transfection

With “Mix-sDNA: random phosphorothioate DNA (SEQ ID NO: 13), control lacking a HMGA-specific binding sequence (DNA dC*dC*dC*dA*dC*dT*dG*dC*dA*dG*dT*dC*dG*dG*dA*dC*dT*dC*dA*dC*dT*dC*dG*dC)” the “cells dead compared to UT” value ([1]; Miapaca-2, 0.1 ug sDNA, 48 hrs) was 30.4%, the “Fold change in numbers of viable cells between TC and sDNA transfected cells (in parentheses)” value [1, 8] was “(1.07) fold” and the “Fold change in numbers of viable cells between UT and transfected cells” value [1, 8] was −1.45 fold. For the same molecule, the “cells dead compared to UT” value ([1]; Miapaca-2, 0.1 ug sDNA, 96 hrs) was 33.3%, the “difference in cell viability between TC cells and sDNA transfected cells” value ([1]; Miapaca-2, 0.1 ug sDNA, both 48 and 96 hours) was “no significant differences” and the “Fold change in numbers of viable cells normalized relative to TC” value ([2]; Miapaca-2, 0.1 ug sDNA, Gemcitabine 1 nM, 96 hours) was 1.12 fold. The “cells dead / change in cell viability” value ([3]; Miapaca-2, 0.1 μg sDNA, 1 nM gemcitabine) was “no significant change”, the cells surviving ([3]; Miapaca-2, 0.1 μg sDNA, 10 nM gemcitabine, normalized to 0 nM gemcitabine) was 94.5% and the “Fold change in numbers of viable cells normalized relative to TC” value ([3]; Gemcitabine 0 nM) was 1.07 fold. For the same molecule, the “Fold change in numbers of viable cells normalized relative to TC” value ([3]; Gemcitabine 10 nM) was 1.01 fold, the “Fold change in numbers of viable cells normalized relative to TC” value ([3]; Gemcitabine 30 nM) was −2.65 fold and the “Fold change in numbers of viable cells normalized relative to TC” value ([3]; Gemcitabine 100 nM) was −4.41 fold. For the same molecule, the “Fold change in numbers of viable cells normalized relative to TC” value ([3]; Gemcitabine 1000 nM) was −4.48 fold, the “Fold change in numbers of viable cells normalized relative to TC” value ([4]; Gemcitabine 0 nM, 96 hours) was −1.14 fold and the “Fold change in numbers of viable cells normalized relative to TC” value ([4]; Gemcitabine 1 nM, 96 hours) was −1.06 fold. For the same molecule, the “Fold change in numbers of viable cells normalized relative to TC” value ([4]; Gemcitabine 10 nM, 96 hours) was −1.16 fold, the “Fold change in numbers of viable cells normalized relative to TC” value ([4]; Gemcitabine 30 nM, 96 hours) was −1.17 fold and the “Fold change in numbers of viable cells normalized relative to TC” value ([4]; Gemcitabine 100 nM, 96 hours) was −1.36 fold. For the same molecule, the “Fold change in numbers of viable cells normalized relative to TC” value ([4]; Gemcitabine 1000 nM, 96 hours) was −1.59 fold, the “cells dead compared to UT” value ([5]; AsPC-1, 0.1 ug sDNA, 48 hrs) was 28.0% and the “Fold change in numbers of viable cells between TC and sDNA transfected cells (in parentheses)” value [5, 9] was “(−1.14) fold”. The “Fold change in numbers of viable cells between UT and transfected cells” value [5, 9] was −1.24 fold, the “cells dead compared to UT” value ([5]; AsPC-1, 0.1 ug sDNA, 96 hrs) was 19.4% and the “difference in cell viability between TC cells and sDNA transfected cells” value ([5]; AsPC-1, 0.1 ug sDNA, both 48 and 96 hours) was “no significant differences”.

In the case of `Nc1ccn([C@@H]2O[C@H](CO)[C@@H](O)C2(F)F)c(=O)n1` [Gemcitabine, gemcitabine], the “change in HMGA1 expression levels after gemcitabine” value [6] is reported as “no change”, the IC50 ([2]; read-out: Gemcitabine IC50 in transfection control (TC) cells, Miapaca-2, TC (no sDNA), 0.1 μg column, 96 hours) is reported as 11.9 ± 1.2 nM and the IC50 ([2]; read-out: Gemcitabine IC50 in transfection control (TC) cells, Miapaca-2, TC (no sDNA), 0.25 μg column, 96 hours) is reported as 21.5 ± 0.6 nM. The “change in cell viability, TC cells” value ([2]; Miapaca-2, TC (no sDNA), 1 nM gemcitabine, 96 hours) was “no significant change”, the “cells surviving, TC cells” value ([2]; Miapaca-2, TC (no sDNA), 10 nM gemcitabine, 96 hours) was 77.1% and the “Fold change in numbers of viable cells, TC cells with gemcitabine” value (from here on “Fold change in numbers … with gemcitabine”) ([2]; Miapaca-2, TC (no sDNA), Gemcitabine 1 nM, 96 hours) was 1.00 fold. The “Fold change in numbers … with gemcitabine” value ([2]; Miapaca-2, TC (no sDNA), Gemcitabine 10 nM, 96 hours) was −1.30 fold, the “Fold change in numbers … with gemcitabine” value ([2]; Miapaca-2, TC (no sDNA), Gemcitabine 100 nM, 96 hours) was −3.59 fold and the “Fold change in numbers … with gemcitabine” value ([2]; Miapaca-2, TC (no sDNA), Gemcitabine 1000 nM, 96 hours) was −3.47 fold. The “Fold change in numbers … with gemcitabine” value ([3]; Miapaca-2, TC (no sDNA), Gemcitabine 30 nM) was −3.21 fold, the “Fold change in numbers … with gemcitabine” value ([4]; AsPC-1, TC (no sDNA), Gemcitabine 30 nM, 96 hours) was −1.04 fold and the IC50 ([4]; Homo sapiens, ASPC1, 96 h, read-out: Gemcitabine IC50 in transfection control (TC) cells, AsPC-1, TC (no sDNA), 0.1 μg column, 96 hours) was 28 nM. For the same molecule, the “Fold change in numbers … with gemcitabine” value ([7]; Gemcitabine 10 nM) was −1.02 fold, the “Fold change in numbers … with gemcitabine” value ([7]; Gemcitabine 100 nM) was −1.36 fold and the “Fold change in numbers … with gemcitabine” value ([7]; Gemcitabine 1000 nM) was −1.52 fold. It also gave an IC50 ([7]; Homo sapiens, ASPC1, 96 h, read-out: Gemcitabine IC50 in transfection control (TC) cells, AsPC-1, TC (no sDNA), 0.25 μg column, 96 hours) of 24.8 nM.
